Assay results from ChEMBL document CHEMBL1201862, “PubChem BioAssay data set” (2004).
Activity calls are given as the source filed them.

Legend:
Aminopeptidase N = target: T1, Aminopeptidase N (Plasmodium falciparum FcB1/Columbia, UniProt O96935); test: P. falciparum M1AAP inhibitors, biochemical, fluorogenic H-Leu-NHMec substrate, 1536-well (AID 1445); parameters: species or system Plasmodium falciparum 3D7, 3D7
T1 sequence (O96935 whole entry): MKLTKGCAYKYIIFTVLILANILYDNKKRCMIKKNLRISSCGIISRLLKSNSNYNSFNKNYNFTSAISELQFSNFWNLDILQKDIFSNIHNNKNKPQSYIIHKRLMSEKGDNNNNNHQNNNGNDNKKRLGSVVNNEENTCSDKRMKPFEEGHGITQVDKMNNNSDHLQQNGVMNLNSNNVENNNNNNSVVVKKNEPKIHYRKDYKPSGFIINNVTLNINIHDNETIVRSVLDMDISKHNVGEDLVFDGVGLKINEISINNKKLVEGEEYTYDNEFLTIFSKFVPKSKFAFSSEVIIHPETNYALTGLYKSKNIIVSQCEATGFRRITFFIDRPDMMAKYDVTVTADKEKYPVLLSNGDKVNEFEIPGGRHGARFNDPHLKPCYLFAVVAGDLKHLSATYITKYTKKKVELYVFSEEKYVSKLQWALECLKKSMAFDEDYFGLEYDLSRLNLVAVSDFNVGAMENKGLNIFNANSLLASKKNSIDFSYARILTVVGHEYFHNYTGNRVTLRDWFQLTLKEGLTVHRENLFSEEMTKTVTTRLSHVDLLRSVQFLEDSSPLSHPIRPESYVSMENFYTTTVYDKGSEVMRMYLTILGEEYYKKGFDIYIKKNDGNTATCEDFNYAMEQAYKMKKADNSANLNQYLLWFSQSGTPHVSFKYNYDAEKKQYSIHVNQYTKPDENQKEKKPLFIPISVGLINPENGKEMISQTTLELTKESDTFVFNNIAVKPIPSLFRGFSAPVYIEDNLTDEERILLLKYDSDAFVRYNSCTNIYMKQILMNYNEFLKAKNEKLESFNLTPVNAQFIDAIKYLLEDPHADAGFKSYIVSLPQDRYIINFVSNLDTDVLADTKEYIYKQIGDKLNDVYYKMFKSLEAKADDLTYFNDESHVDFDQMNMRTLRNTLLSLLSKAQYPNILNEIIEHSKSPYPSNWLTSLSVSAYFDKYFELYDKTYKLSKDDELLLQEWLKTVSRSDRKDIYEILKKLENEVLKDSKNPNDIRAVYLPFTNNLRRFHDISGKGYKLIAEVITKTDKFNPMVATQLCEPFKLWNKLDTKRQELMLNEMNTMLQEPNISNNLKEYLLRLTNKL

[1] = target: T2, Rac GTPase-activating protein 1 (Homo sapiens, UniProt Q9H0H5); test: MgcRacGAP GTPase-activating activity inhibitors, confirmation, biochemical, ADP Hunter fluorescence, primary and confirmatory (AID 624330); assay type: functional
T2 sequence (Q9H0H5 whole entry): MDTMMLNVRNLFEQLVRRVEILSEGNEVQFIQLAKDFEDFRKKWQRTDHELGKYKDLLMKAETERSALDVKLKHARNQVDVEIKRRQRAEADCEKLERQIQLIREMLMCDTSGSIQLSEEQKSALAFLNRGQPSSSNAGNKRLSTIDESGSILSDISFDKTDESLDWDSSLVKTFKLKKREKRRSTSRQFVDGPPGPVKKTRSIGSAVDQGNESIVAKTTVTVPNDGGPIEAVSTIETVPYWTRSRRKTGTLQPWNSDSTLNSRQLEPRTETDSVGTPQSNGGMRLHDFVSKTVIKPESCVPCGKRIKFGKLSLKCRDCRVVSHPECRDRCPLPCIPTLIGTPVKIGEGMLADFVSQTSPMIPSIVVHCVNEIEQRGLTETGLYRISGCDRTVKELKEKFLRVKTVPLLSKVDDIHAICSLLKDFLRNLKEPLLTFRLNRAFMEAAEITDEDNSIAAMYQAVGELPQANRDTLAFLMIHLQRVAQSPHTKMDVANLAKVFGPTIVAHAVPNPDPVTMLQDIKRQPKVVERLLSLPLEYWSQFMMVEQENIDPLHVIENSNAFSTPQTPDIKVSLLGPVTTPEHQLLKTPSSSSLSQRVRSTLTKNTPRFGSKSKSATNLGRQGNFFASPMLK

P388 = test: cells; assay type: functional; settings: Mus musculus
SN12K1 = test: cells; assay type: functional; settings: Homo sapiens
Cytochrome P450 2C19 = Cytochrome P450 2C19 (Homo sapiens, UniProt P33261); test: Cytochrome panel assay with activity outcomes. Panel member name: p450-cyp2c19 Compounds with AC50 equal or less than 10 uM are considered active; assay type: functional; settings: read-out: AC50
P388/ADR = test: cells; assay type: functional; settings: Mus musculus
[2] = target: Mitogen-activated protein kinase 10 (Homo sapiens, UniProt P53779); test: Dose response biochemical screening assay for inhibitors of c-Jun N-Terminal Kinase 3 (JNK3). [Related pubchem assays: 746 ]
Chain of Mitogen-activated protein kinase 10 (P53779 whole entry): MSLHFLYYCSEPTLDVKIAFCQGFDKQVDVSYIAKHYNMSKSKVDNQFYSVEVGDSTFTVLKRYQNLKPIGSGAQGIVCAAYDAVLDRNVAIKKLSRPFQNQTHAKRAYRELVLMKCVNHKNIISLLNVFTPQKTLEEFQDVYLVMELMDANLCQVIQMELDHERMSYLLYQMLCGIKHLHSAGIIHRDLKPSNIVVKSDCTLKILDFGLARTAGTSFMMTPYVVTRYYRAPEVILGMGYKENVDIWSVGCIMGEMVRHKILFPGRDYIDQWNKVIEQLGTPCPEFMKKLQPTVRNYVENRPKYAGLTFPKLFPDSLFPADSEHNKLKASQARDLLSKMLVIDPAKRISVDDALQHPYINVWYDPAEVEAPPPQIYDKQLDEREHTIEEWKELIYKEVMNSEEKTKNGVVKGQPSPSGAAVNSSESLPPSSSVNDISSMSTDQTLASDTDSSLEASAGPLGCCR

[3] = target: Peroxisome proliferator-activated receptor gamma/Nuclear receptor coactivator 1 (Homo sapiens, UniProt P37231); test: TR-FRET dose response biochemical High Throughput Screening assay for agonists of the steroid receptor coactivator 1 (SRC-1) recruitment by the peroxisome proliferator-activated receptor gamma (PPAR gamma): non-selective agonists. [Related pubchem assays (depositor defined):AID1300, AID1808, AID504735, AID631]; assay type: protein assay
[4] = target: Peroxisome proliferator-activated receptor gamma/Nuclear receptor coactivator 2 (Homo sapiens, UniProt P37231); test: (§1) TR-FRET dose response biochemical High Throughput Screening assay for agonists of the steroid receptor coactivator 2 (SRC-2) recruitment by the peroxisome proliferator-activated receptor gamma (PPAR gamma): non-selective agonists. [Related pubchem assays: 1297, 1032 ]; assay type: functional
Chain of Peroxisome proliferator-activated receptor gamma/Nuclear receptor coactivator 2 (P37231 whole entry): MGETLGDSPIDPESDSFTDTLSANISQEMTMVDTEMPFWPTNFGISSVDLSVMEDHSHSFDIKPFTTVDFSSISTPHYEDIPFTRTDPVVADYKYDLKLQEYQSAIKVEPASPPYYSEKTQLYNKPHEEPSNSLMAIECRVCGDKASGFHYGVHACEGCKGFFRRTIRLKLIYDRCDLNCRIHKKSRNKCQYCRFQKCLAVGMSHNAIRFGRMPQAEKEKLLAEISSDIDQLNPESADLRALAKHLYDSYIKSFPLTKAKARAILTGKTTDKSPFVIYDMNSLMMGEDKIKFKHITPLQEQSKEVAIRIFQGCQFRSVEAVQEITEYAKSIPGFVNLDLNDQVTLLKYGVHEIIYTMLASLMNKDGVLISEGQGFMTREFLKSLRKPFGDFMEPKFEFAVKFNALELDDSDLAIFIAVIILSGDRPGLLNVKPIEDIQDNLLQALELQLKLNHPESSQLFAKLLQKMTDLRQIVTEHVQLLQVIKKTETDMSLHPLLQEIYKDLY
Chain of Peroxisome proliferator-activated receptor gamma/Nuclear receptor coactivator 2 (Q15596 whole entry, further chain): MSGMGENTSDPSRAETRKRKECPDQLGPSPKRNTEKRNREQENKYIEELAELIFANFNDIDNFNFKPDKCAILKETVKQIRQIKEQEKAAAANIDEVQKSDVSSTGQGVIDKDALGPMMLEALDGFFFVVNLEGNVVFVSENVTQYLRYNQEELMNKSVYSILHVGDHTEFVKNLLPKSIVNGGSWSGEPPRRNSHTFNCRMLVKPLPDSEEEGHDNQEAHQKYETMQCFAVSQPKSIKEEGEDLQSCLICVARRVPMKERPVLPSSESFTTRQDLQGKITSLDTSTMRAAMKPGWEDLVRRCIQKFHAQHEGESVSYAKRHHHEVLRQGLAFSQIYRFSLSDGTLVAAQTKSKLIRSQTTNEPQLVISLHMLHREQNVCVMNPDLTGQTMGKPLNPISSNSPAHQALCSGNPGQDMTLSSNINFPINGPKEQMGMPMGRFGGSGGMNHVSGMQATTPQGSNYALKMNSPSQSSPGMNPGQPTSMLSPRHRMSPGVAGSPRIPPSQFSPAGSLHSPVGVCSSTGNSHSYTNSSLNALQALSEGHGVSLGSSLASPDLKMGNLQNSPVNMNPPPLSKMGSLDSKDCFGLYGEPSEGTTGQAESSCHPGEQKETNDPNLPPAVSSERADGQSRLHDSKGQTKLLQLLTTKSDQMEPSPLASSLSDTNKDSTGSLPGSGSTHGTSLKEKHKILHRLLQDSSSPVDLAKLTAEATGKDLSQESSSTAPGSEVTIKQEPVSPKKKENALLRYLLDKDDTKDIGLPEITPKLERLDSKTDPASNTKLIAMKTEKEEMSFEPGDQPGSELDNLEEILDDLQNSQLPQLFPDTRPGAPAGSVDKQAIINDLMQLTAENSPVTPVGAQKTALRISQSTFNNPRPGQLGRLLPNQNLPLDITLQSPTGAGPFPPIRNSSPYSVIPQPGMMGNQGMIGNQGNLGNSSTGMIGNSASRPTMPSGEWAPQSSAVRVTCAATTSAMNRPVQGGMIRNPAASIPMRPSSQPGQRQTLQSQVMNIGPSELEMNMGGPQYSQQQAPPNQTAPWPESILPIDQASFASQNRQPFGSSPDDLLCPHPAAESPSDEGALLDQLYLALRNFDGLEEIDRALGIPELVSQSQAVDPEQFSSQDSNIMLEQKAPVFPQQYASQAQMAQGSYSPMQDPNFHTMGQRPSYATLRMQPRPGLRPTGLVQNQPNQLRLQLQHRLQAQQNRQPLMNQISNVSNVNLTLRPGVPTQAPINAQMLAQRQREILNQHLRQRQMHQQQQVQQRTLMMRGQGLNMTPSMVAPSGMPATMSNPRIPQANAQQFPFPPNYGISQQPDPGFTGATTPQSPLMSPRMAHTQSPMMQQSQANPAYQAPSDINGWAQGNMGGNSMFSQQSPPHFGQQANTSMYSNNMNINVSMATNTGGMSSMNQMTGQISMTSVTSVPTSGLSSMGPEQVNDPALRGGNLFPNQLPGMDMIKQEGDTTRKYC

[5] = target: Peroxisome proliferator-activated receptor gamma/Nuclear receptor coactivator 3 (Homo sapiens, UniProt P37231); test: as §1, with “3 (SRC-3)” for “2 (SRC-2)”, “1301 (Confirmation screen.), 1048 (Primary screen.)]” for “1297, 1032 ]”; assay type: functional
Chain of Peroxisome proliferator-activated receptor gamma/Nuclear receptor coactivator 3 (P37231 whole entry): as the sequence (P37231 whole entry) above
Chain of Peroxisome proliferator-activated receptor gamma/Nuclear receptor coactivator 3 (Q9Y6Q9 whole entry, further chain): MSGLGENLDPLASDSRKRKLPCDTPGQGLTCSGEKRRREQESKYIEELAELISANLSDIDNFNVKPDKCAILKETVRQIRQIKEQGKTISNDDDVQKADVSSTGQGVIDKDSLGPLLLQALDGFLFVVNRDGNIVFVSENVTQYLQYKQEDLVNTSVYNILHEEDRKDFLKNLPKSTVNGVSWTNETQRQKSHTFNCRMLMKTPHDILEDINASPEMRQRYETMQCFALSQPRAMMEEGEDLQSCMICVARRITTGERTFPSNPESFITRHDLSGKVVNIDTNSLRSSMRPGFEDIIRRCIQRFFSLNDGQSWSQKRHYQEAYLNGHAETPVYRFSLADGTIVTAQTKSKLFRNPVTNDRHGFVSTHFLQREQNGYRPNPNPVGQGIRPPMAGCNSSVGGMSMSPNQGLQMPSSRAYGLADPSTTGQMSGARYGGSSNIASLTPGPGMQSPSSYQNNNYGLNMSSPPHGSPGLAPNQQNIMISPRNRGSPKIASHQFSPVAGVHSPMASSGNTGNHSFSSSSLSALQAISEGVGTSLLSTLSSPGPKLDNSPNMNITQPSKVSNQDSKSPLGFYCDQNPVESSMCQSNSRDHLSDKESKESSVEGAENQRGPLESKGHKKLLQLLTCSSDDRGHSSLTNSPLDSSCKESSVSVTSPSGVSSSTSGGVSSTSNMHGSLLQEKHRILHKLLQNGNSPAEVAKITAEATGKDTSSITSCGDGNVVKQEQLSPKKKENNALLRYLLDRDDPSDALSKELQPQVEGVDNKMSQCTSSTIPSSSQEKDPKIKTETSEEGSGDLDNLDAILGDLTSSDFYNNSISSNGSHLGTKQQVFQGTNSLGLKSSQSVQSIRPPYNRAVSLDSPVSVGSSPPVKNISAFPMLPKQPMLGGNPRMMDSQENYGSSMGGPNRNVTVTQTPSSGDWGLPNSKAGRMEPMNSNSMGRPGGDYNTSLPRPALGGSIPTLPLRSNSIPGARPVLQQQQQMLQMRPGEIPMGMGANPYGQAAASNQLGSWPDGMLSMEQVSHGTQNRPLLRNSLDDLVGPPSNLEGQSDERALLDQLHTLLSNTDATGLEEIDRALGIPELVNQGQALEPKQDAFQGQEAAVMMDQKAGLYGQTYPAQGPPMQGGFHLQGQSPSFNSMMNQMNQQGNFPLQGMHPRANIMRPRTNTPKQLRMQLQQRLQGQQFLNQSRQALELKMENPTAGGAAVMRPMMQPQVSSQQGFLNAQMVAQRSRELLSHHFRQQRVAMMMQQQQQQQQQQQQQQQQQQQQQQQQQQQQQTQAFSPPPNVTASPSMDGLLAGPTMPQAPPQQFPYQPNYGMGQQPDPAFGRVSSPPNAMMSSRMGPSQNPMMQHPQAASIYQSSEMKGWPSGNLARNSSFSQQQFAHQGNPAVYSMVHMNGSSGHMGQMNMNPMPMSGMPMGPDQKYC

Estrogen receptor beta [6] = target: T3, Estrogen receptor beta (Homo sapiens, UniProt Q92731); test: ERβ–SRC-3 coactivator interaction inhibitors, confirmation, orthogonal assay, biochemical, ELISA, streptavidin-HRP readout (AID 1060)
[7] = target: T4, Carboxy-terminal domain RNA polymerase II polypeptide A small phosphatase 1 (Homo sapiens, UniProt Q9GZU7); test: inhibitors of CTDSP1, concentration-response testing, biochemical assay, absorbance-based, actives from ultra-high-throughput screening (AID 540297); assay type: functional
T4 sequence (Q9GZU7 whole entry): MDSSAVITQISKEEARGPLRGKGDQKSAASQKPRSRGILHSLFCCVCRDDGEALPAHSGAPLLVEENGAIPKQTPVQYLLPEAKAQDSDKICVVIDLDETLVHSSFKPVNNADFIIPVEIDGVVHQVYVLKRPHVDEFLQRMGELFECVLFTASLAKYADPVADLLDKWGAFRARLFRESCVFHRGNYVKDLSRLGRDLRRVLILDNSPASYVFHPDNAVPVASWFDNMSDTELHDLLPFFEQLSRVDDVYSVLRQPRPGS

Estrogen receptor beta [8] = target: T3, Estrogen receptor beta
[9] = target: T5, E3 ubiquitin-protein ligase XIAP (Homo sapiens, UniProt P98170); test: XIAP antagonists, biochemical, IAP family, fluorescence polarization (AID 1018); assay type: functional
T5 sequence (P98170 whole entry): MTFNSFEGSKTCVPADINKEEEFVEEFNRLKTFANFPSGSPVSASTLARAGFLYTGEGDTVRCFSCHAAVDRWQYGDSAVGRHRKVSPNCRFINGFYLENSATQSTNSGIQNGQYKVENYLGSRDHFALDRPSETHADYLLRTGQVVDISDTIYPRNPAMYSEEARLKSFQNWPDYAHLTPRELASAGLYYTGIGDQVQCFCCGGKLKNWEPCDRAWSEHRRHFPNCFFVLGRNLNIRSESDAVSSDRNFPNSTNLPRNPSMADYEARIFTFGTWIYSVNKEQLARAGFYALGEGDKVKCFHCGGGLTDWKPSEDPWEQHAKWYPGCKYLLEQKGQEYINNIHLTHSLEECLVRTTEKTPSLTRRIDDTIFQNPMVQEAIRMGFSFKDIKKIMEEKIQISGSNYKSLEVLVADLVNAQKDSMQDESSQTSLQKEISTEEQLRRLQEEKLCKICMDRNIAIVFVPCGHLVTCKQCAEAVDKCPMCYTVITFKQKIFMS

[10] = target: T5, E3 ubiquitin-protein ligase XIAP; test: Counter Screen using XIAP-Bir3 for Chemical Antagonists of Bir1/2 domains of IAP-family anti-apoptotic proteins. [Related pubchem assays (depositor defined):AID1018, AID1449, AID1514, AID1638, AID1749, AID1750, AID488957, AID488963]

SMILES | EC50 [3] | EC50 [4] | EC50 [5] | GI50 (P388) | GI50 (SN12K1) | GI50 (P388/ADR) | also measured
C=CCn1c(=O)/c(=C/c2ccc(O)cc2)s/c1=C(/C#N)c1nnc2n1CCCCC2 | – | – | – | – | – | – | IC50 (Aminopeptidase N): 51.1 µM (active); IC50 [1]: 58.7 µM (active)
Cc1c2cnccc2c(C)c2c1c1ccccc1n2CCOC(=O)c1ccccc1 | – | – | – | 4.95 µM (inactive) | 10.3 µM (inactive) | 9.23 µM (inactive) | AC50 (Cytochrome P450 2C19): 0.794 µM (inconclusive)
CC(NC(=O)C(C)NC(=O)C(N)CCP(C)(=O)O)C(=O)O (centres undefined) | – | – | – | > 31.6 µM (inactive) | > 100 µM (inactive) | > 100 µM (inactive) | –
CCOC(=O)c1c(C)nsc1S | > 79.4 µM (inactive) | > 26.5 µM (not active) | > 79.4 µM (not active) | – | – | – | IC50 [2]: 30.5 µM (not active); IC50 [1]: 56.6 µM (active)
O=C(NNC(=O)c1ccc(O)cc1O)c1ccc(Cl)cc1 | – | – | – | – | – | – | IC50 (Aminopeptidase N): 58.1 µM (active)
CCCCOC(=O)CNc1nnc(S)nc1O | 5 µM (active) | 4.23 µM (active) | 91.3 µM (not active) | – | – | – | –
O=C(COC(=O)c1ccccc1)NCc1ccco1 | – | – | – | – | – | – | IC50 (Estrogen receptor beta [6]): 0.351 µM (not active); IC50 [7]: 11.1 µM (active); IC50 (Estrogen receptor beta [8]): 5.54 µM (active)
O=C(NC(Cc1ccc(I)cc1)C(=O)O)c1ccc(I)cc1 (centres undefined) | – | – | – | 41.4 µM (inactive) | > 100 µM (inactive) | 38 µM (inactive) | –
CC1C(=O)C(C)C(c2cccs2)N(N=O)C1c1cccs1 (centres undefined) | – | – | – | 39.4 µM (inactive) | > 100 µM (inactive) | 36 µM (inactive) | –
O=C(C1CC(c2ccc(F)cc2)=NO1)N1CCc2ccccc2C1 (centres undefined) | – | – | – | – | – | – | IC50 [9]: > 100 µM (not active); IC50 [10]: > 100 µM (inactive)

Now from value to molecule, other results behind:

EC50 [3] | EC50 [4] | EC50 [5] | SMILES | GI50 (P388) | GI50 (SN12K1) | GI50 (P388/ADR) | also measured
9.02 µM (active) | 5.6 µM (active) | > 79.4 µM (not active) | c1ccc2[nH]c(CSc3ncnc4c3oc3ccccc34)nc2c1 | – | – | – | IC50 [2]: > 93.1 µM (not active)
> 79.4 µM (inactive) | > 26.5 µM (not active) | > 79.4 µM (not active) | CC(=O)CSc1ncnc2c1oc1ccccc12 | – | – | – | –
> 79.4 µM (inactive) | > 79.4 µM (not active) | > 79.4 µM (not active) | CN(Cc1ccccc1)C(=O)CSc1cc(=O)n(C)c2ccccc12 | – | – | – | –
